Results published in patent US3974281A, “5-Methyl-1-phenyl-2-(1H)-pyridone compositions and methods of use” (priority 1974, dated 1976).

Key:
[1] = tested on: experimentally-induced fever in albino rabbits; experiment: Anti-pyretic activity, experimentally-induced fever in rabbits; type: in vivo; details: for anti-pyretic activity: induced fever
Experimental: anti-pyretic activity testing is based upon the ability of the drug to suppress the experimentally-induced fever in albino rabbits (F. M. Berger, et al. J. Pharmacology and Experimental Therapeutics, Vol. 127, No. 1, 1959 based upon the original presentations of G. Brownlee Quart. J. Pharm; Vol. 10, Pg. 609, 1937 and Quart. J. Pharm., Vol. 12, Pg. 45, 1939). The drugs under test are administered intraperitoneally and the response is compared to that of saline controls. The average change in temperature over a period of three hours following the administration of aminopyrine (100 mg./kg. i.p.), AMR-69 (100 mg./kg. i.p.) and the saline (isotonic) controls were as follows:
The effective anti-pyretic activity of AMR-69 in rabbits has been noted previously.

[2] = Acute toxicity in mice; type: in vivo; details: mouse, in vivo, ip; fasted albino mice, intraperitoneal; read-out: Intraperitoneally LD50
Experimental: in fasted albino mice (Flanders) the LD50 for AMR-69 and aminopyrine was determined by standard procedures with the following results: […]

[3] = tested on: rats with the hind limb inflammed; experiment: Analgesic activity, rats with inflamed hind limb (absence of squeal on flexion of inflamed ankle joint); type: in vivo, rat; details: for ED50: Rattus norvegicus, read-out: oral ED50 (median analgesic dose); for ED50 / side effects at the median analgesic dose: oral; for side effects at the median analgesic dose: at ED50 dosage (AMR-94 160 mg./kg.; AMR-93 325 mg./kg.)
Experimental: the end-point for analgesic testing in rats with the hind limb inflammed is based on the absence of a squeal in response to flexion of the inflammed ankle joint (Method described by S. Margolin, Proceedings of an International Symposium on Non-Steroidal Anti-Inflammatory Drugs, Excerpta Medica International Congress, Series No. 82, 1964).
With AMR-93, the median effective dose was 325 ± 45 mg./kg.

[4] = tested on: edema (swelling), experimental inflammation in the hind limb of rats; experiment: Anti-inflammatory activity, reduction of edema of experimentally inflamed hind limb; type: in vivo, albino rats; details: for ED50: Rattus norvegicus, read-out: oral median effective dose (ED50), anti-inflammatory; for anti-inflammatory effect: oral dosage of 600 mg./kg.
Experimental: anti-inflammatory activity was assayed by the method described by Margolin (ibid.) utilizing albino rats. The anti-inflammatory bio-assay basis is the ability to reduce the edema (swelling) when an experimental inflammation is induced in the hind limb of the rats.

[5] = General comparison of side effects and therapeutic activity in the several tests; details: in vivo
[6] = tested on: mucous membranes of the nasopharynx and lungs; experiment: Protection of mucous membranes of the nasopharynx and lungs, comparison with related pyridones; type: in vivo; details: for protection of mucous membranes of the nasopharynx and lungs: comparison with related pyridones; for side effects / deleterious effects on the respiratory system: mucous membrane protection tests
[7] = tested on: experimentally-induced fever in albino rabbits; experiment: Anti-pyretic activity, experimentally-induced fever in rabbits; type: in vivo; details: animals without experimentally induced fever as well
[8] = tested on: serum uric acid; experiment: Reduction in serum uric acid levels, rats; type: in vivo, albino male and female rats; details: albino male and female rats, similar tests
Experimental: normal adult albino male and female rats were given repeated graded doses of AMR-69 and the effect upon serum uric acid levels was determined. There were 10 males and 10 females in each group. The control group received the placebo and the drug was administered orally by admixture to the food. The serum uric acid determination was one of a series performed utilizing the Autotechnicon technique (Lofland et al., 1965 Technicon Symposium) using the Standard SMA-12 procedure (based upon procedure of Bittner et al., AM. J. Clin. Path. 40:423, 1963).
The lowering in serum uric acid levels shown by AMR-69 in tests on rats and on dogs has been noted.

## Cc1c(N(C)C)c(=O)n(-c2ccccc2)n1C [Aminopyrine, aminopyrine, reference compound]
[1]; 100 mg./kg. i.p., fevered albino rabbits, saline controls +0.9 ±0.17°C
  average change in temperature over a period of three hours: -0.6 ±0.16 °C
[1]; 100 mg./kg. i.p., aminopyrine t = 6.6, p < 0.01, AMR-69 t = 6.3, p < 0.01
  reduction in fever as compared to the saline control: highly significant
[2]
  LD50: 175 ± 9 mg/kg
[3]
  ED50: 150 ± 26 mg/kg
[4]; oral
  ED50: 185 ± 31 mg/kg

## Cc1cccn(-c2ccccc2)c1=O [AMR-77, 3-methyl-1-phenyl-2-(1H)-pyridone]
[1]; rabbits
  anti-pyretic activity: No significant anti-pyretic activity was observed
[5]
  deleterious side effects in the several tests: not observed
  therapeutic activity in the several tests: neither was significant therapeutic activity demonstrated
[6]
  protection of mucous membranes of the nasopharynx and lungs: no evidence of protective action
  side effects / deleterious effects on the respiratory system: No acute deleterious effects on the respiratory system were observed
[3]
  ED50: 515 ± 45 mg/kg
[3]; oral route
  analgesic activity relative to AMR-69: approximately one-third to one-fourth the activity of AMR-69
[4]
  anti-inflammatory effect: No anti-inflammatory effect was observed

## CCc1ccc(=O)n(-c2ccccc2)c1 [AMR-94, 5-ethyl-1-phenyl-2-(1H)-pyridone]
[1]; rabbits
  convulsions observed, test animals: two of the four
  anti-pyretic activity: slight reduction in induced fever which was not considered statistically significant
[7]
  effect on normal body temperature: marked lowering of normal body temperature
[5]
  deleterious side effects in the several tests: accompanied by deleterious side effects
[6]
  protection of mucous membranes of the nasopharynx and lungs: did not show a protective effect
  side effects / deleterious effects on the respiratory system: undesirable side effects were evident
[8]
  change in serum uric acid level: did not show a significant change in serum uric acid level
[3]
  analgesic effect at a dosage low enough to obviate Central Nervous System depression: could not be demonstrated
  ED50: 160 ± 32 mg/kg
  side effects at the median analgesic dose: marked sedation, Central Nervous System depression, loss of respiratory efficiency, ataxia, and uncoordinated gait
[4]; oral
  ED50: 225 ± 52 mg/kg
  side-effects at anti-inflammatory ED50: accompanied by undesired side-effects

## O=c1ccccn1-c1ccccc1 [AMR-93, 1-phenyl-2-(1H)-pyridone]
[1]; rabbits
  anti-pyretic activity: No significant anti-pyretic activity was observed
[5]
  deleterious side effects in the several tests: accompanied by deleterious side effects
[6]
  protection of mucous membranes of the nasopharynx and lungs: did not show a protective effect
  side effects / deleterious effects on the respiratory system: undesirable side effects were evident
[8]
  change in serum uric acid level: did not show a significant change in serum uric acid level
[3]
  ED50: 325 ± 45 mg/kg
  side effects at the median analgesic dose: acute bleeding from the nose and an autopsy revealed multiple hemorrhages and edema of the lungs
[4]
  anti-inflammatory effect: No anti-inflammatory effect was observed
